# From ChEMBL document CHEMBL5380816, “Inclusion of Nitrofurantoin into the Realm of Cancer Chemotherapy via Biology-Oriented Synthesis and Drug Repurposing” (J Med Chem, 2023)
# Active and inactive are the calls of the source. The calls are words filed in the database; no cut-off is given here.
# What was measured:
# dsDNA [1] = assay: Induction of damage in dsDNA (unknown origin) assessed as disrupted by DNA by measuring decrease in fluorescence intensity at 100 uM incubated for 50 mins by EvaGreen based fluorescence plate reader analysis; assay type: nucleic-acid assay
# HeLa [2] = assay: Induction of apoptosis in human HeLa cells assessed as early apoptotic cells by measuring bright green patch incubated at 0.11 uM for 72 hrs by acridine orange-ethidium bromide dual staining based fluorescence microscopic analysis; assay type: functional, cell-based
# MCF7 [3] = assay: Induction of DNA damage in human MCF7 cells assessed as increase in p53 expression at 5 uM incubated for 24 hrs by Western blot analysis; assay type: functional, cell-based
# HeLa [4] = assay: Anticancer activity against human HeLa cells assessed as losing contact with neighbouring cells incubated at 0.11 uM for 72 hrs by phase contrast inverted microscopic analysis; assay type: functional, cell-based
# Caco-2 [5] = assay: Induction of apoptosis in human Caco-2 cells assessed as late apoptotic cells incubated at 0.11 uM for 72 hrs by annexin V-FITC based propidium iodide dual staining assay (reference value: 0.02%); assay type: functional
# Caco-2 [6] = assay: Induction of oxidative stress in human Caco-2 cells assessed as cell death by measuring redox alteration fluorescence incubated at 0.11 uM for 72 hrs in presence of dihydro dichlorofluorescein diacetate by DCFH-DA based flow cytometric analysis relative to control; assay type: functional
# MCF7 [7] = assay: Anticancer activity against human MCF7 cells assessed as absence of normal spindle shape incubated at 0.11 uM for 72 hrs by phase contrast inverted microscopic analysis; assay type: functional, cell-based
# Caco-2 [8] = assay: Induction of apoptosis in human Caco-2 cells assessed as early apoptotic cells by measuring bright green patch incubated at 0.11 uM for 72 hrs by acridine orange-ethidium bromide dual staining based fluorescence microscopic analysis; assay type: functional, cell-based
# dsDNA [9] = assay: Induction of damage in dsDNA (unknown origin) assessed as disrupted by DNA by measuring decrease in fluorescence intensity at 100 uM by EvaGreen based fluorescence plate reader analysis; assay type: nucleic-acid assay; conditions: time <= 160.0 min, TDE = time-dependent effect
# dsDNA [10] = assay: Induction of damage in dsDNA (unknown origin) assessed as instantaneous DNA disruption by measuring decrease in fluorescence intensity at 100 uM incubated upto 160 mins by EvaGreen based fluorescence plate reader analysis; assay type: nucleic-acid assay
# HeLa [11] = assay: Anticancer activity against human HeLa cells assessed as absence of normal spindle shape incubated at 0.11 uM for 72 hrs by phase contrast inverted microscopic analysis; assay type: functional, cell-based
# HepG2 [12] = assay: Anticancer activity against human HepG2 cells assessed as losing contact with neighbouring cells incubated at 0.11 uM for 72 hrs by phase contrast inverted microscopic analysis; assay type: functional, cell-based
# MCF7 [13] = assay: Induction of apoptosis in human MCF7 cells assessed as viable cells incubated at 0.017 uM for 72 hrs by annexin V-FITC based propidium iodide dual staining assay (reference value: 99.9%); assay type: functional; conditions: read-out: Activity
# Caco-2 [14] = assay: Induction of apoptosis in human Caco-2 cells assessed as early apoptotic cells incubated at 0.017 uM for 72 hrs by annexin V-FITC based propidium iodide dual staining assay (reference value: 0.07%); assay type: functional
# MCF7 [15] = assay: Induction of apoptosis in human MCF7 cells assessed as caspase3/7 activation at 0.017 uM using caspase-glo 3/7 as substrate relative to control; assay type: functional
# HepG2 [16] = assay: Induction of apoptosis in human HepG2 cells assessed as caspase3/7 activation at 0.017 uM using caspase-glo 3/7 as substrate relative to control; assay type: functional
# MCF7 [17] = assay: Induction of apoptosis in human MCF7 cells assessed as necrotic cells incubated at 0.017 uM for 72 hrs by annexin V-FITC based propidium iodide dual staining assay (reference value: 0.03%); assay type: functional
# HepG2 [18] = assay: Induction of oxidative stress in human HepG2 cells assessed as cell death by measuring redox alteration fluorescence incubated at 0.017 uM for 72 hrs in presence of dihydro dichlorofluorescein diacetate by DCFH-DA based flow cytometric analysis relative to control; assay type: functional
# Caco-2 [19] = assay: Induction of apoptosis in human Caco-2 cells assessed as viable cells incubated at 0.097 uM for 72 hrs by annexin V-FITC based propidium iodide dual staining assay (reference value: 99.89%); assay type: functional; conditions: read-out: Activity
# HeLa [20] = assay: Induction of apoptosis in human HeLa cells assessed as necrotic cells incubated at 0.097 uM for 72 hrs by annexin V-FITC based propidium iodide dual staining assay (reference value: 0%); assay type: functional
# HepG2 [21] = assay: Anticancer activity against human HepG2 cells assessed as cell shrinkage incubated at 0.097uM for 72 hrs by phase contrast inverted microscopic analysis; assay type: functional, cell-based
# HepG2 [22] = assay: Anticancer activity against human HepG2 cells assessed as losing contact with neighbouring cells incubated at 0.097uM for 72 hrs by phase contrast inverted microscopic analysis; assay type: functional, cell-based
# Caco-2 [23] = assay: Anticancer activity against human Caco-2 cells assessed as smaller cells incubated at 0.097uM for 72 hrs by phase contrast inverted microscopic analysis; assay type: functional, cell-based
# MCF7 [24] = assay: Induction of apoptosis in human MCF7 cells assessed as total apoptotic cells incubated at 0.097 uM for 72 hrs by annexin V-FITC based propidium iodide dual staining assay (reference value: 0.04 %); assay type: functional
# Caco-2 [25] = assay: Induction of apoptosis in human Caco-2 cells assessed as late apoptotic cells by measuring orange to red patch incubated at 0.097 uM for 72 hrs by acridine orange-ethidium bromide dual staining based fluorescence microscopic analysis; assay type: functional, cell-based
# HepG2 [26] = assay: Induction of apoptosis in human HepG2 cells assessed as late apoptotic cells by measuring orange to red patch incubated at 0.097 uM for 72 hrs by acridine orange-ethidium bromide dual staining based fluorescence microscopic analysis; assay type: functional, cell-based
# MCF7 [27] = assay: Induction of apoptosis in human MCF7 cells assessed as late apoptotic cells by measuring orange to red patch incubated at 0.097 uM for 72 hrs by acridine orange-ethidium bromide dual staining based fluorescence microscopic analysis; assay type: functional, cell-based
# Caco-2 [28] = assay: Anticancer activity against human Caco-2 cells assessed as losing contact with neighbouring cells incubated at 0.097uM for 72 hrs by phase contrast inverted microscopic analysis; assay type: functional, cell-based
# MCF7 [29] = assay: Induction of oxidative stress in human MCF7 cells assessed as cell death by measuring redox alteration fluorescence incubated at 0.11 uM for 72 hrs in presence of dihydro dichlorofluorescein diacetate by DCFH-DA based flow cytometric analysis relative to control; assay type: functional
# HeLa [30] = assay: Induction of apoptosis in human HeLa cells assessed as late apoptotic cells incubated at 0.098 uM for 72 hrs by annexin V-FITC based propidium iodide dual staining assay (reference value: 0%); assay type: functional
# Caco-2 [31] = assay: Anticancer activity against human Caco-2 cells assessed as absence of normal spindle shape incubated at 0.098uM for 72 hrs by phase contrast inverted microscopic analysis; assay type: functional, cell-based
# Caco-2 [32] = assay: Anticancer activity against human Caco-2 cells assessed as cell shrinkage incubated at 0.098uM for 72 hrs by phase contrast inverted microscopic analysis; assay type: functional, cell-based
# HepG2 [33] = assay: Induction of apoptosis in human HepG2 cells assessed as early apoptotic cells by measuring bright green patch incubated at 0.098 uM for 72 hrs by acridine orange-ethidium bromide dual staining based fluorescence microscopic analysis; assay type: functional, cell-based
# HeLa [34] = assay: Induction of apoptosis in human HeLa cells assessed as caspase3/7 activation at 0.098 uM using caspase-glo 3/7 as substrate relative to control; assay type: functional
# HeLa [35] = assay: Induction of apoptosis in human HeLa cells assessed as viable cells incubated at 0.098 uM for 72 hrs by annexin V-FITC based propidium iodide dual staining assay (reference value: 97.23%); assay type: functional; conditions: read-out: Activity
compound,measurement,setting,value
C#CCN1C(=O)CN(/N=C/c2ccc([N+](=O)[O-])o2)C1=O,Activity,dsDNA [1],Active
same,Activity,HeLa [2],Active
same,Activity,MCF7 [3],Active
same,Activity,HeLa [4],Active
same,Activity,Caco-2 [5],42.24%
same,Activity,Caco-2 [6],45.56%
same,Activity,MCF7 [7],Active
same,Activity,Caco-2 [8],Active
same,Activity,dsDNA [9],Tde
same,Activity,dsDNA [10],Active
same,Activity,HeLa [11],Active
same,Activity,HepG2 [12],Active
O=c1[nH]cc(F)c(=O)[nH]1 [FLUOROURACIL],viability at 0.017 µM,MCF7 [13],90.9%
same,Activity,Caco-2 [14],6.74%
same,Activity,MCF7 [15],12%
same,Activity,HepG2 [16],12%
same,Activity,MCF7 [17],0.68%
same,Activity,HepG2 [18],4.78%
NS(=O)(=O)c1ccc(-n2cc(CN3C(=O)CN(/N=C/c4ccc([N+](=O)[O-])o4)C3=O)nn2)cc1,viability at 0.097 µM,Caco-2 [19],32.8%
same,Activity,HeLa [20],4.26%
same,Activity,HepG2 [21],Active
same,Activity,HepG2 [22],Active
same,Activity,Caco-2 [23],Active
same,Activity,MCF7 [24],64.08%
same,Activity,Caco-2 [25],Active
same,Activity,HepG2 [26],Active
same,Activity,MCF7 [27],Active
same,Activity,Caco-2 [28],Active
same,Activity,MCF7 [29],51.08%
O=C(CN1C(=O)CN(/N=C/c2ccc([N+](=O)[O-])o2)C1=O)c1ccc(Cl)cc1,Activity,HeLa [30],62.92%
same,Activity,Caco-2 [31],Active
same,Activity,Caco-2 [32],Active
same,Activity,HepG2 [33],Active
same,Activity,HeLa [34],75%
same,viability at 0.098 µM,HeLa [35],29.8%
